Reference: patent US11857669B2, “Treatment of a disease of the gastrointestinal tract with a JAK inhibitor and devices” (BIORA THERAPEUTICS, INC., priority 2016, dated 2024)

Assay: Tacrolimus tissue pharmacokinetics, oral vs intra-cecal ingestible device delivery
Type: in vivo, Yorkshire-Cross farm swine
Conditions: swine; intra-cecally vs orally administered; 12 hours post-dose; FIG. 76
Method: The primary objective of this study was to compare the tissue, plasma, rectal sample, and GI content pharmacokinetics of tacrolimus through oral versus intra-cecal ingestible device delivery in normal Yorkshire-Cross farm swine.
No further randomization procedure was employed.
Animals in Group 1 received an ingestible device containing 0.8 mL of vehicle solution (80% alcohol, 20% HCO-60). Animals in Group 2 received orally […] liquid formulation of tacrolimus at 4 mg/0.8 mL per animal (Prograf: 5 mg/mL). Animals in Group 3 received intra-cecally an ingestible device containing tacrolimus at 1 mg in 0.8 mL per ingestible device. Animals in Group 4 received intra-cecally an ingestible device containing tacrolimus at 2 mg in 0.8 mL per ingestible device. Animals in Group 5 received intra-cecally an ingestible device containing tacrolimus at 4 mg in 0.8 mL per ingestible device. […]
For tissue necropsy, small intestine fluid and cecal fluid were collected separately from all the animals into two separate square plastic bottles, and stored at −20° C. The length and diameter of the cecum and the colon was measured from one animal in each group and recorded for reference. […] All samples were weighed, and the tissue sample weights were recorded. […] Around 3 grams of the total punched sample were collected into a pre-weighed 15-mL conical tube, and the tissue weight was recorded. […]

## C=CC[C@@H]1/C=C(\C)C[C@H](C)C[C@H](OC)[C@H]2O[C@@](O)(C(=O)C(=O)N3CCCC[C@H]3C(=O)O[C@H](/C(C)=C/[C@@H]3CC[C@@H](O)[C@H](OC)C3)[C@H](C)[C@@H](O)CC1=O)[C@H](C)C[C@@H]2OC [tacrolimus]
  mean concentration of tacrolimus in the cecum tissue and the proximate colon tissue: higher
